In patent US8231888B2, “Isoxazolines for controlling invertebrate pests” (priority 2005, dated 2012):

Legend:
Type in all cases: in vivo
[1] = test system: fall armyworm (Spodoptera frugiperda); assay: Test B: control of fall armyworm on corn (maize) plant, foliar spray; conditions: sprayed at 250 and/or 50 ppm; no asterisk (not limited to 250 ppm)
Protocol: (§1) Test compounds were formulated using a solution containing 10% acetone, 90% water and 300 ppm X-77™ Spreader Lo-Foam Formula non-ionic surfactant containing alkylarylpolyoxyethylene, free fatty acids, glycols and isopropanol (Loveland Industries, Inc. Greeley, Colo., USA). The formulated compounds were applied in 1 mL of liquid through a SUJ2 atomizer nozzle with 1/8 JJ custom body (Spraying Systems Co. Wheaton, Ill., USA) positioned 1.27 cm (0.5 inches) above the top of each test unit. All experimental compounds in these tests were sprayed at 250 and/or 50 ppm, and the test was replicated three times. After spraying of the formulated test compound, each test unit was allowed to dry for 1 h and then a black, screened cap was placed on top. The test units were held for 6 days in a growth chamber at 25° C. and 70% relative humidity. Plant feeding damage was then visually assessed based on foliage consumed and a pest mortality rating was also counted and calculated for each test unit.
For evaluating control of fall armyworm (Spodoptera frugiperda) the test unit consisted of a small open container with a 4-5-day-old corn (maize) plant inside. This was pre-infested (using a core sampler) with 10-15 1-day-old larvae on a piece of insect diet. Test compounds were formulated and sprayed at 250 and/or 50 ppm as described for Test A and replicated three times. After spraying, the test units were maintained in a growth chamber and then the control efficacy was rated for each test unit as described for Test A.

[2] = test system: diamondback moth (Plutella xylostella); assay: Test A: control of diamondback moth on radish plant, foliar spray; conditions: sprayed at 250 and/or 50 ppm, 6 days, 25° C.; no asterisk (not limited to 250 ppm)
Description: For evaluating control of diamondback moth (Plutella xylostella) the test unit consisted of a small open container with a 12-14-day-old radish plant inside. This was pre-infested with about 50 neonate larvae that were dispensed into the test unit via corn cob grits using a bazooka inoculator. The larvae moved onto the test plant after being dispensed into the test unit.
as §1

[3] = test system: western flower thrips (Frankliniella occidentalis); assay: Test D: control of western flower thrips on Soleil bean plant, contact and/or systemic; conditions: 6 days, 25° C.
Protocol: as §1
For evaluating control of the western flower thrips (Frankliniella occidentalis) through contact and/or systemic means, the test unit consisted of a small open container with a 5-7 day old Soleil Bean plant inside. Test compounds were formulated and sprayed at 250 and/or 50 ppm, and the test was replicated three times as described for Test A. After spraying, the test units were allowed to dry for 1 hour and then 22-27 adult thrips were added to each unit and then a black, screened cap was placed on top. The test units were held for 6 days at 25° C. and 45-55% relative humidity. A mortality rating was assessed along with a plant damage rating for each test unit.

[4] = sprayed at 250 and/or 50 ppm, no asterisk (not limited to 250 ppm)
[5] = asterisk: observed only at 250 ppm

SMILES	control efficacy (20% or less feeding damage or 80% or more mortality) [1]	control efficacy (20% or less feeding damage or 80% or more mortality) [2]	control efficacy (20% or less feeding damage or 80% or more mortality) [3, 4]	control efficacy (20% or less feeding damage or 80% or more mortality) [3, 5]
CC(NC(=O)c1ccc(C2=NOC(c3cc(Cl)cc(Cl)c3)(C(F)(F)F)C2)c2ccccc12)c1ccccn1 (stereo not drawn) [Compound 21]	very good to excellent levels of control efficacy	very good to excellent levels of control efficacy	very good to excellent levels of control efficacy	
CCNC(=O)c1ccc(C2=NOC(c3cc(Cl)cc(Cl)c3)(C(F)(F)F)C2)c2ccccc12 (stereo not drawn) [Compound 10]	very good to excellent levels of control efficacy	very good to excellent levels of control efficacy	very good to excellent levels of control efficacy	
O=C(NCc1ccccn1)c1ccc(C2=NOC(c3cc(Cl)cc(Cl)c3)(C(F)(F)F)C2)c2ccncc12 (stereo not drawn) [Compound 104, 5-[5-(3,5-dichlorophenyl)-4,5-dihydro-5-(trifluoromethyl)-3-isoxazolyl]-N-(2-pyridinylmethyl)-8-isoquinolinecarboxamide]	very good to excellent levels of control efficacy	very good to excellent levels of control efficacy	very good to excellent levels of control efficacy	
FC(F)(F)C1(c2cc(Cl)cc(Cl)c2)CC(c2ccc(C(=S)NCc3ccccn3)c3ccccc23)=NO1 (stereo not drawn) [Compound 8]	very good to excellent levels of control efficacy	very good to excellent levels of control efficacy	very good to excellent levels of control efficacy	
C#CCNC(=O)c1ccc(C2=NOC(c3cc(Cl)cc(Cl)c3)(C(F)(F)F)C2)c2ccccc12 (stereo not drawn) [Compound 19]	very good to excellent levels of control efficacy	very good to excellent levels of control efficacy	very good to excellent levels of control efficacy	
O=C(CNC(=O)c1ccc(C2=NOC(c3cc(Cl)cc(Cl)c3)(C(F)(F)F)C2)c2ccccc12)NCC(F)(F)F (stereo not drawn) [Compound 51]	very good to excellent levels of control efficacy	very good to excellent levels of control efficacy	very good to excellent levels of control efficacy	
O=C(NCC(F)(F)F)c1ccc(C2=NOC(c3cc(Cl)cc(Cl)c3)(C(F)(F)F)C2)c2ccccc12 (stereo not drawn) [Compound 1]	very good to excellent levels of control efficacy	very good to excellent levels of control efficacy	very good to excellent levels of control efficacy	
O=C(NCC1CC1)c1ccc(C2=NOC(c3cc(Cl)cc(Cl)c3)(C(F)(F)F)C2)c2ccccc12 (stereo not drawn) [Compound 20]	very good to excellent levels of control efficacy	very good to excellent levels of control efficacy		very good to excellent levels of control efficacy
CN(C)CCNC(=O)c1ccc(C2=NOC(c3cc(Cl)cc(Cl)c3)(C(F)(F)F)C2)c2ccccc12 (stereo not drawn) [Compound 13]	very good to excellent levels of control efficacy	very good to excellent levels of control efficacy		very good to excellent levels of control efficacy
CC(NC(=O)c1ccc(C2=NOC(c3cc(Cl)cc(Cl)c3)(C(F)(F)F)C2)c2ccccc12)C(C)(C)C (stereo not drawn) [Compound 34]	very good to excellent levels of control efficacy	very good to excellent levels of control efficacy		very good to excellent levels of control efficacy
O=C(NCc1ccccn1)c1ccc(C2=NOC(c3cc(Br)cc(Br)c3)(C(F)(F)F)C2)c2ccccc12 (stereo not drawn) [Compound 26]	very good to excellent levels of control efficacy	very good to excellent levels of control efficacy	very good to excellent levels of control efficacy	
O=C(N[C@H]1CCc2ccccc21)c1ccc(C2=NOC(c3cc(Cl)cc(Cl)c3)(C(F)(F)F)C2)c2ccccc12 (stereo partly drawn) [Compound 39]	very good to excellent levels of control efficacy	very good to excellent levels of control efficacy		very good to excellent levels of control efficacy
CC(NC(=O)c1ccc(C2=NOC(c3cc(Cl)cc(Cl)c3)(C(F)(F)F)C2)c2ccccc12)c1ccccc1 (mixture of isomers) [Compound 15]	very good to excellent levels of control efficacy	very good to excellent levels of control efficacy		very good to excellent levels of control efficacy
COC(=O)N(Cc1ccccn1)C(=O)c1ccc(C2=NOC(c3cc(Cl)cc(Cl)c3)(C(F)(F)F)C2)c2ccccc12 (stereo not drawn) [Compound 11]	very good to excellent levels of control efficacy	very good to excellent levels of control efficacy	very good to excellent levels of control efficacy	
CCOC(=O)CNC(=O)c1ccc(C2=NOC(c3cc(Cl)cc(Cl)c3)(C(F)(F)F)C2)c2ccccc12 (stereo not drawn) [Compound 42]	very good to excellent levels of control efficacy	very good to excellent levels of control efficacy	very good to excellent levels of control efficacy	
COCCNC(=O)c1ccc(C2=NOC(c3cc(Cl)cc(Cl)c3)(C(F)(F)F)C2)c2ccccc12 (stereo not drawn) [Compound 41]	very good to excellent levels of control efficacy	very good to excellent levels of control efficacy	very good to excellent levels of control efficacy	
CCC(C)NC(=O)c1ccc(C2=NOC(c3cc(Cl)cc(Cl)c3)(C(F)(F)F)C2)c2ccccc12 (mixture of isomers) [Compound 32]	very good to excellent levels of control efficacy	very good to excellent levels of control efficacy	very good to excellent levels of control efficacy	
CC(C)NC(=O)c1ccc(C2=NOC(c3cc(Cl)cc(Cl)c3)(C(F)(F)F)C2)c2ccccc12 (stereo not drawn) [Compound 16]	very good to excellent levels of control efficacy	very good to excellent levels of control efficacy	very good to excellent levels of control efficacy	
C=CCNC(=O)c1ccc(C2=NOC(c3cc(Cl)cc(Cl)c3)(C(F)(F)F)C2)c2ccccc12 (stereo not drawn) [Compound 18]	very good to excellent levels of control efficacy	very good to excellent levels of control efficacy	very good to excellent levels of control efficacy	
O=C(NNc1ccccc1)c1ccc(C2=NOC(c3cc(Cl)cc(Cl)c3)(C(F)(F)F)C2)c2ccccc12 (stereo not drawn) [Compound 46]	very good to excellent levels of control efficacy	very good to excellent levels of control efficacy		very good to excellent levels of control efficacy
